Measurements published in ChEMBL document CHEMBL1201862, “PubChem BioAssay data set” (2004).
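Cells were grown in 96-well plates and exposed to each compound for 48 hours at five concentrations; endpoints were interpolated linearly between bracketing concentrations, or set to the highest concentration if not reached. GI50 marks 50% less growth.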 Activity calls are given as the source filed them. No stated cut-off is given here; in the data, active = GI50 up to about 1.1 µM and inactive = higher.

Columns and labels:
Assay in all cases: NCI anticancer screen, dose series, 48 h
[1] = test system: A549
[2] = test system: OVCAR-4
[3] = test system: UACC-62
[4] = test system: OVCAR-3
[5] = test system: HOP-62
[6] = test system: NCI-H522
[7] = test system: MDA-MB-435
[8] = test system: 786-0
[9] = test system: A498
[10] = test system: SN12C
[11] = test system: EKVX
[12] = test system: UACC-257
[13] = test system: PC-3
[14] = test system: U-251
[15] = test system: LOX IMVI
[16] = test system: SW-620
[17] = test system: IGROV-1
[18] = test system: NCI-H226
[19] = test system: TK-10
[20] = test system: MDA-MB-231
[21] = test system: SK-MEL-2
[22] = test system: MDA-N
[23] = test system: SK-MEL-28
[24] = test system: Hs-578T
[25] = test system: COLO 205
[26] = test system: OVCAR-8
[27] = test system: RXF 393
[28] = test system: SNB-75
[29] = test system: CAKI-1
[30] = test system: BT-549
[31] = test system: NCI-H23
[32] = test system: SK-OV-3
[33] = test system: OVCAR-5
[34] = test system: HCT-15
[35] = test system: ACHN
[36] = test system: HCT-116
[37] = test system: Malme-3M
[38] = test system: DU-145
[39] = test system: HL-60
[40] = test system: KM12
[41] = test system: CCRF-CEM
[42] = test system: NCI/ADR-RES
[43] = test system: HT-29
[44] = test system: SF-295
[45] = test system: MOLT-4
[46] = test system: NCI-H460
[47] = test system: SK-MEL-5
[48] = test system: SF-268
[49] = test system: M14
[50] = test system: UO-31
[51] = test system: K562
[52] = test system: RPMI-8226
[53] = test system: SNB-19
[54] = test system: MCF7
[55] = test system: SR
[56] = test system: T47D
[57] = test system: HCC 2998
[58] = test system: SF-539
[59] = test system: HOP-92

Measured: GI50

c1ccc(C2CC(NC3CCCCC3)=Nc3ccccc3N2)cc1 (centres undefined)
inactive: [1] > 100 µM | [2] > 100 µM | [3] 31.2 µM | [4] > 100 µM | [5] > 100 µM | [6] 22.8 µM | [7] 24.3 µM | [8] > 100 µM | [9] 18.8 µM | [10] > 100 µM | [11] 54.8 µM | [12] 47.5 µM | [13] 33.6 µM | [14] 56.9 µM | [15] 20.4 µM | [16] > 100 µM | [17] 27.7 µM | [18] > 100 µM | [19] > 100 µM | [20] 24.5 µM | [21] > 100 µM | [22] 75.9 µM | [23] 45.2 µM | [24] 28.4 µM | [25] 24.2 µM | [26] > 100 µM | [27] 31.7 µM | [28] 16.4 µM | [29] 98.9 µM | [30] 54.8 µM | [31] 54.1 µM | [32] > 100 µM | [33] 78.2 µM | [35] > 100 µM | [36] 73.5 µM | [37] 15.6 µM | [38] > 100 µM | [39] 25.8 µM | [40] 40.8 µM | [41] 34.9 µM | [42] > 100 µM | [43] 24.2 µM | [44] 44 µM | [45] 17.7 µM | [46] 46.9 µM | [47] 18.7 µM | [48] 65.3 µM | [49] 27.4 µM | [50] > 100 µM | [51] 19.3 µM | [52] 34 µM | [53] > 100 µM
94.2 µM: [34]

COCc1nc(N)nc(N2N=C(C)CC2(C)C)n1
inactive: [1] > 100 µM | [2] > 100 µM | [3] > 100 µM | [4] > 100 µM | [5] > 100 µM | [6] > 100 µM | [7] > 100 µM | [8] > 100 µM | [9] > 100 µM | [10] > 100 µM | [11] > 100 µM | [12] > 100 µM | [13] > 100 µM | [14] > 100 µM | [15] > 100 µM | [16] > 100 µM | [17] > 100 µM | [18] > 100 µM | [19] > 100 µM | [20] > 100 µM | [21] > 100 µM | [54] > 100 µM | [23] > 100 µM | [24] > 100 µM | [25] > 100 µM | [26] > 100 µM | [55] > 100 µM | [27] > 100 µM | [28] > 100 µM | [29] > 100 µM | [56] > 100 µM | [30] > 100 µM | [31] > 100 µM | [32] > 100 µM | [33] > 100 µM | [35] > 100 µM | [36] > 100 µM | [57] > 100 µM | [38] > 100 µM | [39] > 100 µM | [40] > 100 µM | [41] > 100 µM | [42] > 100 µM | [58] > 100 µM | [43] > 100 µM | [44] > 100 µM | [45] > 100 µM | [46] > 100 µM | [47] > 100 µM | [48] > 100 µM | [59] > 100 µM | [49] > 100 µM | [50] > 100 µM | [51] > 100 µM | [52] > 100 µM | [53] > 100 µM
> 100 µM: [34]

N#C/C(=C/NC(=S)Nc1ccc(S(N)(=O)=O)cc1)C(N)=O
inactive: [1] > 100 µM | [2] > 100 µM | [3] > 100 µM | [4] > 100 µM | [5] > 100 µM | [6] > 100 µM | [7] > 100 µM | [8] > 100 µM | [9] > 100 µM | [10] > 100 µM | [11] > 100 µM | [12] > 100 µM | [13] > 100 µM | [14] > 100 µM | [16] > 100 µM | [17] > 100 µM | [19] > 100 µM | [54] > 100 µM | [22] > 100 µM | [23] > 100 µM | [24] > 100 µM | [25] > 100 µM | [26] > 100 µM | [55] > 100 µM | [27] > 100 µM | [28] 42.1 µM | [29] > 100 µM | [30] > 100 µM | [31] > 100 µM | [32] > 100 µM | [33] > 100 µM | [35] > 100 µM | [36] > 100 µM | [57] > 100 µM | [37] > 100 µM | [38] > 100 µM | [39] 43.7 µM | [40] > 100 µM | [58] > 100 µM | [43] > 100 µM | [44] > 100 µM | [45] > 100 µM | [46] > 100 µM | [47] > 100 µM | [48] > 100 µM | [59] > 100 µM | [49] > 100 µM | [52] > 100 µM
> 100 µM: [34]

CCOC(=O)C(C)(Cc1ccc(O)cn1)NC(=O)c1ccccc1 (centres undefined)
inactive: [1] > 100 µM | [2] > 100 µM | [3] > 100 µM | [4] > 100 µM | [5] > 100 µM | [6] > 100 µM | [7] > 100 µM | [8] > 100 µM | [11] > 100 µM | [12] > 100 µM | [13] > 100 µM | [14] > 100 µM | [15] > 100 µM | [16] > 100 µM | [17] > 100 µM | [18] > 100 µM | [19] > 100 µM | [20] > 100 µM | [21] > 100 µM | [22] > 100 µM | [23] > 100 µM | [24] > 100 µM | [25] > 100 µM | [26] > 100 µM | [55] > 100 µM | [27] > 100 µM | [28] 80.4 µM | [29] > 100 µM | [30] > 100 µM | [31] > 100 µM | [32] > 100 µM | [33] > 100 µM | [35] > 100 µM | [36] > 100 µM | [57] > 100 µM | [37] > 100 µM | [38] > 100 µM | [39] > 100 µM | [40] > 100 µM | [41] > 100 µM | [42] > 100 µM | [58] > 100 µM | [43] > 100 µM | [44] > 100 µM | [45] > 100 µM | [46] > 100 µM | [47] > 100 µM | [48] > 100 µM | [59] 47 µM | [49] > 100 µM | [50] > 100 µM | [51] > 100 µM | [52] > 100 µM | [53] > 100 µM
> 100 µM: [34]
